PubChem BioAssay (NCI)
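Interpolation was linear, between the two tested concentrations surrounding the appropriate level; five concentrations were tested over 48 hours in 96-well plates. At the TGI there is no net growth.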

How the values were obtained:
Test in all cases: NCI anticancer screen, dose series, 48 h
[1] = tested on: 786-0 renal
[2] = tested on: A498 renal
[3] = tested on: A549 NSCLC
[4] = tested on: ACHN renal
[5] = tested on: BT-549 breast
[6] = tested on: CAKI-1 renal
[7] = tested on: CCRF-CEM leukemia
[8] = tested on: COLO 205 colon
[9] = tested on: DLD-1 colon
[10] = tested on: DMS 114 small cell lung
[11] = tested on: DMS 273 small cell lung
[12] = tested on: DU-145 prostate
[13] = tested on: EKVX NSCLC
[14] = tested on: HCC-2998 colon
[15] = tested on: HCT-116 colon
[16] = tested on: HCT-15 colon
[17] = tested on: HL-60(TB) leukemia
[18] = tested on: HOP-18 NSCLC
[19] = tested on: HOP-62 NSCLC
[20] = tested on: HOP-92 NSCLC
[21] = tested on: HS 578T breast
[22] = tested on: HT29 colon
[23] = tested on: IGROV1 ovarian
[24] = tested on: K-562 leukemia
[25] = tested on: KM12 colon
[26] = tested on: KM20L2 colon
[27] = tested on: LOX IMVI melanoma
[28] = tested on: LXFL 529 NSCLC
[29] = tested on: M14 melanoma
[30] = tested on: M19-MEL melanoma
[31] = tested on: MALME-3M melanoma
[32] = tested on: MCF7 breast
[33] = tested on: MDA-MB-231 breast
[34] = tested on: MDA-MB-435
[35] = tested on: MDA-N
[36] = tested on: MOLT-4 leukemia
[37] = tested on: NCI-H226 lung
[38] = tested on: NCI-H23 lung
[39] = tested on: NCI-H460 lung
[40] = tested on: NCI-H522 lung
[41] = tested on: NCI/ADR-RES ovarian
[42] = tested on: OVCAR-3 ovarian
[43] = tested on: OVCAR-4 ovarian
[44] = tested on: OVCAR-5 ovarian
[45] = tested on: OVCAR-8 ovarian
[46] = tested on: PC-3 prostate
[47] = tested on: RPMI-8226 leukemia
[48] = tested on: RXF 393 renal
[49] = tested on: SF-268 CNS
[50] = tested on: SF-295 CNS
[51] = tested on: SF-539 CNS
[52] = tested on: SK-MEL-2 melanoma
[53] = tested on: SK-MEL-28 melanoma
[54] = tested on: SK-MEL-5 melanoma
[55] = tested on: SK-OV-3 ovarian
[56] = tested on: SN12C renal
[57] = tested on: SNB-19 CNS
[58] = tested on: SNB-75 CNS
[59] = tested on: SNB-78 CNS
[60] = tested on: SR leukemia
[61] = tested on: SW-620 colon
[62] = tested on: TK-10 renal
[63] = tested on: U251 CNS
[64] = tested on: UACC-257 melanoma
[65] = tested on: UACC-62 melanoma
[66] = tested on: UO-31 renal
[67] = tested on: XF 498 CNS
[68] = tested on: RXF-631 renal

CCCCCCCCCCCCCCCC(=O)OCC1OC(OC)C(NC(=O)N(CCCl)N=O)C(O)C1O (stereo not given)
TGI [1]: 14.9 µM | TGI [2]: 61.3 µM | TGI [3]: 35.2 µM | TGI [4]: 57.2 µM | TGI [5]: 99.4 µM | TGI [6]: 45.4 µM | TGI [7]: 53.7 µM | TGI [8]: 47.4 µM | TGI [9]: 37.9 µM | TGI [10]: 46.4 µM | TGI [11]: 25.2 µM | TGI [12]: 92.6 µM | TGI [13]: > 87.5 µM | TGI [14]: 48.2 µM | TGI [15]: 26.8 µM | TGI [16]: 35.4 µM | TGI [17]: 28.3 µM | TGI [18]: > 100 µM | TGI [19]: 31.9 µM | TGI [20]: 47.8 µM | TGI [21]: 63.9 µM | TGI [22]: 33.7 µM | TGI [23]: 54 µM | TGI [24]: 62.1 µM | TGI [25]: 56.2 µM | TGI [26]: 58.4 µM | TGI [27]: 17.5 µM | TGI [28]: 37.4 µM | TGI [29]: 36.4 µM | TGI [30]: > 89.6 µM | TGI [31]: 59 µM | TGI [32]: > 100 µM | TGI [33]: 35.5 µM | TGI [34]: 31.3 µM | TGI [35]: 32 µM | TGI [36]: 29.2 µM | TGI [37]: 39.7 µM | TGI [38]: 32 µM | TGI [39]: 23.1 µM | TGI [40]: 34.7 µM | TGI [41]: 58.9 µM | TGI [42]: 48.6 µM | TGI [43]: 53.4 µM | TGI [44]: > 74 µM | TGI [45]: 45.3 µM | TGI [46]: 51.7 µM | TGI [47]: 61.6 µM | TGI [48]: 32.7 µM | TGI [49]: 37.4 µM | TGI [50]: 24.7 µM | TGI [51]: 15.3 µM | TGI [52]: 36.8 µM | TGI [53]: > 85.4 µM | TGI [54]: 59.9 µM | TGI [55]: 63 µM | TGI [56]: 39.3 µM | TGI [57]: > 67.2 µM | TGI [58]: 38.5 µM | TGI [59]: > 85.5 µM | TGI [60]: > 60.9 µM | TGI [61]: 28.5 µM | TGI [62]: 63.2 µM | TGI [63]: 27 µM | TGI [64]: 47.8 µM | TGI [65]: 15 µM | TGI [66]: 48.9 µM | TGI [67]: 25.7 µM

COc1cc(C(O)C(=O)c2cnc3cc([N+](=O)[O-])ccc3n2)ccc1O (stereo not given)
TGI [1]: > 100 µM | TGI [2]: > 100 µM | TGI [3]: > 100 µM | TGI [4]: > 100 µM | TGI [6]: > 100 µM | TGI [7]: > 100 µM | TGI [8]: > 100 µM | TGI [9]: > 100 µM | TGI [10]: > 100 µM | TGI [11]: > 100 µM | TGI [13]: > 100 µM | TGI [14]: > 100 µM | TGI [15]: > 100 µM | TGI [16]: > 100 µM | TGI [17]: > 100 µM | TGI [19]: > 100 µM | TGI [22]: > 100 µM | TGI [23]: > 100 µM | TGI [24]: > 100 µM | TGI [25]: > 100 µM | TGI [26]: > 100 µM | TGI [27]: > 100 µM | TGI [28]: > 100 µM | TGI [29]: > 100 µM | TGI [30]: > 100 µM | TGI [31]: > 100 µM | TGI [36]: > 100 µM | TGI [39]: > 100 µM | TGI [43]: > 100 µM | TGI [45]: > 100 µM | TGI [47]: > 100 µM | TGI [48]: > 100 µM | TGI [68]: > 100 µM | TGI [50]: > 100 µM | TGI [51]: > 100 µM | TGI [52]: > 100 µM | TGI [54]: > 100 µM | TGI [55]: > 100 µM | TGI [56]: > 100 µM | TGI [57]: > 100 µM | TGI [58]: > 100 µM | TGI [60]: > 100 µM | TGI [61]: > 100 µM | TGI [62]: > 100 µM | TGI [63]: > 100 µM | TGI [64]: > 100 µM | TGI [65]: > 100 µM | TGI [66]: > 100 µM | TGI [67]: > 100 µM

C[N+](C)(C)CC(=O)N/N=C(/Cc1nc2ccc([N+](=O)[O-])cc2[nH]c1=O)C(=O)Nc1cc(C(F)(F)F)ccc1Cl
TGI [1]: > 100 µM | TGI [2]: > 100 µM | TGI [3]: > 100 µM | TGI [4]: > 100 µM | TGI [6]: > 100 µM | TGI [7]: > 100 µM | TGI [8]: > 100 µM | TGI [9]: > 100 µM | TGI [10]: > 100 µM | TGI [13]: > 100 µM | TGI [14]: > 100 µM | TGI [15]: > 100 µM | TGI [17]: > 100 µM | TGI [19]: > 100 µM | TGI [20]: > 100 µM | TGI [22]: > 100 µM | TGI [23]: > 100 µM | TGI [24]: > 100 µM | TGI [25]: > 100 µM | TGI [26]: > 100 µM | TGI [29]: > 100 µM | TGI [30]: > 100 µM | TGI [31]: > 100 µM | TGI [36]: > 100 µM | TGI [38]: > 100 µM | TGI [39]: > 100 µM | TGI [40]: > 100 µM | TGI [42]: > 100 µM | TGI [43]: > 100 µM | TGI [44]: > 100 µM | TGI [45]: > 100 µM | TGI [47]: > 100 µM | TGI [48]: > 100 µM | TGI [68]: > 100 µM | TGI [49]: > 100 µM | TGI [50]: > 100 µM | TGI [51]: > 100 µM | TGI [52]: > 100 µM | TGI [53]: > 100 µM | TGI [54]: > 100 µM | TGI [55]: > 100 µM | TGI [56]: > 100 µM | TGI [57]: > 100 µM | TGI [60]: > 100 µM | TGI [61]: > 100 µM | TGI [62]: > 100 µM | TGI [64]: > 100 µM | TGI [65]: > 100 µM | TGI [66]: > 100 µM
